Data from patent publication US20240158446A1, “CYCLIC COMPOUND HAVING SELECTIVE INHIBITORY ACTION ON KRAS OVER HRAS AND NRAS” (CHUGAI SEIYAKU KABUSHIKI KAISHA, priority 2021, published 2024).

What was measured:
[1] = target: GDP-bound KRAS wild-type protein (Homo sapiens, UniProt P01116); assay: Binding to KRAS by surface plasmon resonance (SPR), Single Cycle Kinetics; settings: SPR, Single Cycle Kinetics, 1:1 binding model; GDP-bound KRAS wild-type protein; read-out: KRAS KD
[2] = target: GDP-bound HRAS wild-type protein (Homo sapiens, UniProt P01112); assay: Binding to HRAS by surface plasmon resonance (SPR), Single Cycle Kinetics; settings: SPR; GDP-bound HRAS wild-type protein vs GDP-bound KRAS wild-type protein; KD ratio class
[3] = tested on: human lung cancer strain NCI-H441;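 further: cell proliferation inhibition after four days measured by CellTiter-Glo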
[4] = target: GDP-bound NRAS wild-type protein (Homo sapiens, UniProt P01111); assay: Binding to NRAS by surface plasmon resonance (SPR), Single Cycle Kinetics; settings: SPR; GDP-bound NRAS wild-type protein vs GDP-bound KRAS wild-type protein; KD ratio class
Sequence of GDP-bound NRAS wild-type protein (P01111 whole entry): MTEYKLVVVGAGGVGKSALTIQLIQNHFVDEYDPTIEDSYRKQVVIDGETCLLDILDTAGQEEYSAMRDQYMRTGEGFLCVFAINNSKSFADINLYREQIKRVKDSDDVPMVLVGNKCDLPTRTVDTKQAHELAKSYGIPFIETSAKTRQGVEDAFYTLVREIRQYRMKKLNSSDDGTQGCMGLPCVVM

Sequence of GDP-bound KRAS wild-type protein (P01116 whole entry): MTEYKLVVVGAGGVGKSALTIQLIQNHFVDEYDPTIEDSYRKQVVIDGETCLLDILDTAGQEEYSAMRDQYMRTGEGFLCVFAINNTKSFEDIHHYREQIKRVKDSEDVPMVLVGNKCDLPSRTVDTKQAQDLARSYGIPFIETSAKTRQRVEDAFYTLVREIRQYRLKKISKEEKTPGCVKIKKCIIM
Sequence of GDP-bound HRAS wild-type protein (P01112 whole entry): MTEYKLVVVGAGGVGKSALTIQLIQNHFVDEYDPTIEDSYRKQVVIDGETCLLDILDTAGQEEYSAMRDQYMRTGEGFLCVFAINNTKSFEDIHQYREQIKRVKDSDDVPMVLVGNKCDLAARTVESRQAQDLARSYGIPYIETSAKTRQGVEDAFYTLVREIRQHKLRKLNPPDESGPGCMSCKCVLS

SMILES | Kd [1] [nM] | HRAS/KRAS (ratio of KD value for HRAS to KD value for KRAS) [2] | IC50 [3] [nM] | NRAS/KRAS (ratio of KD value for NRAS to KD value for KRAS) [4]
CCO[C@@H]1C[C@H]2C(=O)NC3(CCC3)C(=O)N(C)[C@@H](C3CCCC3)C(=O)N(C)[C@H](C(=O)N(C)C)CC(=O)N(C)[C@@H](CSC)C(=O)N[C@@H]([C@@H](C)CC)C(=O)N(C)CC(=O)N(C)[C@H]3C/C=C\CCN(C3=O)[C@@H](CC3CCC(F)(F)CC3)C(=O)N(C)CC(=O)N[C@@H](CCc3cc(F)c(C(F)(F)F)c(F)c3)C(=O)N2C1 [PP1449, (2S,8S,12R,14S,20S,23S,27R,30S,36S,38Z)-20-cyclopentyl-2-[(4,4-difluorocyclohexyl)methyl]-8-[2-[3,5-difluoro-4-(trifluoromethyl)phenyl]ethyl]-12-ethoxy-N,N,4,19,22,26,32,35-octamethyl-30-[(1 S)-1-methylpropyl]-27-(methylsulfanylmethyl)-3,6,9,15,18,21,25,28,31,34,42-undecaoxo-spiro[1,4,7,10,16,19,22,26,29,32,35-undecazatricyclo[34.5.1.0^10,14]dotetracont-38-ene-17,1′-cyclobutane]-23-carboxamide] | 0.098 | A (a compound having 10 or more and less than 20 is denoted as A) | 30.6 | A (a compound having 10 or more and less than 20 is denoted as A)
CCC[C@H]1C(=O)N[C@@H]([C@@H](C)CC)C(=O)N(C)CC(=O)N(C)[C@H]2C/C=C\CCN(C2=O)[C@@H](CC2CCC(F)(F)CC2)C(=O)N(C)CC(=O)N[C@@H](CCc2cc(F)c(C(F)(F)F)c(F)c2)C(=O)N2C[C@H](OCC)C[C@H]2C(=O)NC2(CCC2)C(=O)N(C)[C@@H](C2CCCC2)C(=O)N(C)[C@H](C(=O)N(C)C)CC(=O)N1C [PP1450, (2S,8S,12R,14S,20S,23S,27S,30S,36S,38Z)-20-cyclopentyl-2-[(4,4-difluorocyclohexyl)methyl]-8-[2-[3,5-difluoro-4-(trifluoromethyl)phenyl]ethyl]-12-ethoxy-N,N,4,19,22,26,32,35-octamethyl-30-[(1S)-1-methylpropyl]-3,6,9,15,18,21,25,28,31,34,42-undecaoxo-27-propyl-spiro[1,4,7,10,16,19,22,26,29,32,35-undecazatricyclo[34.5.1.0^10,14]dotetracont-38-ene-17,1′-cyclobutane]-23-carboxamide] | 0.14 | A (a compound having 10 or more and less than 20 is denoted as A) | 50.1 | A (a compound having 10 or more and less than 20 is denoted as A)
CC[C@H](C)[C@@H]1NC(=O)[C@H](CC)N(C)C(=O)C[C@@H](C(=O)N(C)C)N(C)C(=O)[C@H](C2CCCC2)N(C)C(=O)C2(CCC2)NC(=O)[C@@H]2C[C@@H](C(F)(F)F)CN2C(=O)[C@H](CCc2cc(F)c(C(F)(F)F)c(F)c2)NC(=O)CN(C)C(=O)[C@H](CC2CCC(F)(F)CC2)N2CC/C=C\C[C@@H](C2=O)N(C)C(=O)CN(C)C1=O [PP1451, (2S,8S,12R,14S,20S,23S,27S,30S,36S,38Z)-20-cyclopentyl-2-[(4,4-difluorocyclohexyl)methyl]-8-[2-[3,5-difluoro-4-(trifluoromethyl)phenyl]ethyl]-27-ethyl-N,N,4,19,22,26,32,35-octamethyl-30-[(1S)-1-methylpropyl]-3,6,9,15,18,21,25,28,31,34,42-undecaoxo-12-(trifluoromethyl)spiro[1,4,7,10,16,19,22,26,29,32,35-undecazatricyclo[34.5.1.0^10,14]dotetracont-38-ene-17,1′-cyclobutane]-23-carboxamide] | 0.14 | A (a compound having 10 or more and less than 20 is denoted as A) | 61.1 | A (a compound having 10 or more and less than 20 is denoted as A)
CCO[C@@H]1C[C@H]2C(=O)NC3(CCC3)C(=O)N(C)[C@@H](C3CCCC3)C(=O)N(C)[C@H](C(=O)N(C)C)CC(=O)N(C)[C@@H](CC)C(=O)N[C@@H]([C@@H](C)CC)C(=O)N(C)CC(=O)N(C)[C@H]3C/C=C\CCN(C3=O)[C@@H](CC3CCC(F)(F)CC3)C(=O)N(C)CC(=O)N[C@@H](CCc3cc(F)c(C(F)(F)F)c(F)c3)C(=O)N2C1 [PP1452, (2S,8S,12R,14S,20S,23S,27S,30S,36S,38Z)-20-cyclopentyl-2-[(4,4-difluorocyclohexyl)methyl]-8-[2-[3,5-difluoro-4-(trifluoromethyl)phenyl]ethyl]-12-ethoxy-27-ethyl-N,N,4,19,22,26,32,35-octamethyl-30-[(1S)-1-methylpropyl]-3,6,9,15,18,21,25,28,31,34,42-undecaoxo-spiro[1,4,7,10,16,19,22,26,29,32,35-undecazatricyclo[34.5.1.0^10,14]dotetracont-38-ene-17,1′-cyclobutane]-23-carboxamide] | 0.13 | A (a compound having 10 or more and less than 20 is denoted as A) | 30.5 | A (a compound having 10 or more and less than 20 is denoted as A)
CCO[C@@H]1C[C@H]2C(=O)NC3(CCC3)C(=O)N(C)[C@@H](C3CCCC3)C(=O)N(C)[C@H](C(=O)N(C)C)CC(=O)N(C)[C@@H](CC(C)C)C(=O)N[C@@H]([C@@H](C)CC)C(=O)N(C)CC(=O)N(C)[C@H]3C/C=C\CCN(C3=O)[C@@H](CC3CCC(F)(F)CC3)C(=O)N(C)CC(=O)N[C@@H](CCc3cc(F)c(C(F)(F)F)c(F)c3)C(=O)N2C1 [PP1453, (2S,8S,12R,14S,20S,23S,27S,30S,36S,38Z)-20-cyclopentyl-2-[(4,4-difluorocyclohexyl)methyl]-8-[2-[3,5-difluoro-4-(trifluoromethyl)phenyl]ethyl]-12-ethoxy-27-isobutyl-N,N,4,19,22,26,32,35-octamethyl-30-[(1S)-1-methylpropyl]-3,6,9,15,18,21,25,28,31,34,42-undecaoxo-spiro[1,4,7,10,16,19,22,26,29,32,35-undecazatricyclo[34.5.1.0^10,14]dotetracont-38-ene-17,1′-cyclobutane]-23-carboxamide] | 0.12 | A (a compound having 10 or more and less than 20 is denoted as A) | 13.6 | A (a compound having 10 or more and less than 20 is denoted as A)
C=CC[C@H]1C(=O)N[C@@H]([C@@H](C)CC)C(=O)N(C)CC(=O)N(C)[C@H]2C/C=C\CCN(C2=O)[C@@H](CC2CCC(F)(F)CC2)C(=O)N(C)CC(=O)N[C@@H](CCc2cc(F)c(C(F)(F)F)c(F)c2)C(=O)N2C[C@H](OCC)C[C@H]2C(=O)NC2(CCC2)C(=O)N(C)[C@@H](C2CCCC2)C(=O)N(C)[C@H](C(=O)N(C)C)CC(=O)N1C [PP1454, (2S,8S,12R,14S,20S,23S,27S,30S,36S,38Z)-27-allyl-20-cyclopentyl-2-[(4,4-difluorocyclohexyl)methyl]-8-[2-[3,5-difluoro-4-(trifluoromethyl)phenyl]ethyl]-12-ethoxy-N,N,4,19,22,26,32,35-octamethyl-30-[(1S)-1-methylpropyl]-3,6,9,15,18,21,25,28,31,34,42-undecaoxo-spiro[1,4,7,10,16,19,22,26,29,32,35-undecazatricyclo[34.5.1.0^10,14]dotetracont-38-ene-17,1′-cyclobutane]-23-carboxamide] | 0.096 | A (a compound having 10 or more and less than 20 is denoted as A) | 15.2 | A (a compound having 10 or more and less than 20 is denoted as A)
CCO[C@@H]1C[C@H]2C(=O)NC3(CCC3)C(=O)N(C)[C@@H](C3CCCC3)C(=O)N(C)[C@H](C(=O)N(C)C)CC(=O)N(C)[C@@H](CC3CCC3)C(=O)N[C@@H]([C@@H](C)CC)C(=O)N(C)CC(=O)N(C)[C@H]3C/C=C\CCN(C3=O)[C@@H](CC3CCC(F)(F)CC3)C(=O)N(C)CC(=O)N[C@@H](CCc3cc(F)c(C(F)(F)F)c(F)c3)C(=O)N2C1 [PP1455, (2S,8S,12R,14S,20S,23S,27S,30S,36S,38Z)-27-(cyclobutylmethyl)-20-cyclopentyl-2-[(4,4-difluorocyclohexyl)methyl]-8-[2-[3,5-difluoro-4-(trifluoromethyl)phenyl]ethyl]-12-ethoxy-N,N,4,19,22,26,32,35-octamethyl-30-[(1S)-1-methylpropyl]-3,6,9,15,18,21,25,28,31,34,42-undecaoxo-spiro[1,4,7,10,16,19,22,26,29,32,35-undecazatricyclo[34.5.1.0^10,14]dotetracont-38-ene-17,1′-cyclobutane]-23-carboxamide] | 0.11 | A (a compound having 10 or more and less than 20 is denoted as A) | 13.4 | A (a compound having 10 or more and less than 20 is denoted as A)
CCO[C@@H]1C[C@H]2C(=O)NC3(CCCC3)C(=O)N(C)[C@@H](C3CCCC3)C(=O)N(C)[C@H](C(=O)N(C)C)CC(=O)N(C)[C@@H](C)C(=O)N[C@@H]([C@@H](C)CC)C(=O)N(C)CC(=O)N(C)[C@H]3C/C=C\CCN(C3=O)[C@@H](CC3CCC(F)(F)CC3)C(=O)N(C)CC(=O)N[C@@H](CCc3cc(F)c(C(F)(F)F)c(F)c3)C(=O)N2C1 [PP1456, (2S,8S,12R,14S,20S,23S,27S,30S,36S,38Z)-20-cyclopentyl-2-[(4,4-difluorocyclohexyl)methyl]-8-[2-[3,5-difluoro-4-(trifluoromethyl)phenyl]ethyl]-12-ethoxy-N,N,4,19,22,26,27,32,35-nonamethyl-30-[(1S)-1-methylpropyl]-3,6,9,15,18,21,25,28,31,34,42-undecaoxo-spiro[1,4,7,10,16,19,22,26,29,32,35-undecazatricyclo[34.5.1.0^10,14]dotetracont-38-ene-17,1′-cyclopentane]-23-carboxamide] | 0.12 | A (a compound having 10 or more and less than 20 is denoted as A) | 90 | A (a compound having 10 or more and less than 20 is denoted as A)
